Data from US20260347310A1, “PHENALKYLAMINES AND METHODS OF MAKING AND USING THE SAME” (GILGAMESH PHARMACEUTICALS, INC., priority 2022, published 2026).
pEC50, pKi: −log10 of the molar value. Entries after “also recorded” stand apart in the source; their conditions may differ.

Tests used:
5-HT2A receptor [1] = target: T1, 5-HT2A receptor (Homo sapiens, UniProt P28223); assay: FLIPR Ca2+ flux functional agonist assay at 5-HT2A; assay type: cell-based; parameters: expressed in transfected cells; host or cells: HEK293; details: for agonist activity at 5-HT2A (in words): potency or efficacy; for Emax: HEK293, read-out: 5-HT2A % Act @ Max Dose
T1 sequence (P28223 whole entry): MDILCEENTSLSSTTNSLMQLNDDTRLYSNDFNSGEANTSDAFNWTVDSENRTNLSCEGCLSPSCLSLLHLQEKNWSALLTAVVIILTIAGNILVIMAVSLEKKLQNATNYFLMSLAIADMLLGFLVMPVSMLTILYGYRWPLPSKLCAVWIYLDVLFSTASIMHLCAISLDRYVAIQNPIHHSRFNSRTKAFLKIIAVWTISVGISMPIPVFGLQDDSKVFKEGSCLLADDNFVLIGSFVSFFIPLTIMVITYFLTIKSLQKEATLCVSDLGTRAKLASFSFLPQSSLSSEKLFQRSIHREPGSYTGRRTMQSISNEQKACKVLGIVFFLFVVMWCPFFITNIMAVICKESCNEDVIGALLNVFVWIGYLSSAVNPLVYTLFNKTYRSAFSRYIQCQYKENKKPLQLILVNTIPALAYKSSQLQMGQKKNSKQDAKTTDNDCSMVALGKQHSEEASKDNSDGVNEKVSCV
Experimental: (§1) Disclosed compounds were tested for agonist activity at several serotonin receptor subtypes (5-HT2A, […], and 5-HT2C) using Ca^2+ flux functional assays, with the results summarized in Table 9.
(§2) Test Compounds. Compounds were prepared as described above.
(§3) Functional Assays at 5-HT2A and 5-HT2B. Agonist activity at 5-HT2A and 5-HT2B receptors was determined using a FLIPR Ca^2+ flux assay at WuXi AppTec (Hong Kong) Limited according to their standard protocols. Briefly, stably transfected cells expressing the receptor of interest (HEK293 for both 5-HT2A and 5-HT2B) were grown and plated in a 384-well plate and incubated at 37° C. and 5% CO2 overnight. A solution of 250 mM probenecid in 1 mL FLIPR assay buffer was prepared fresh. This was combined with a fluorescent dye (Fluo-4 Direct™) to make a final assay concentration of 2.5 mM. Compounds were diluted 1:3.16 for 10 points and 750 nL was added to a 384 well compound plate using ECHO along with 30 μL assay buffer. The fluorescent dye was then added to the assay plate along with assay buffer to a final volume of 40 μL. The cell plate was incubated for 50 min at 37° C. and 5% CO2 and placed into the FLIPR Tetra along with the compound plate. 10 μL of references and compounds were then transferred from the compound plate into the cell plate and the fluorescent signal was read.

5-HT2A receptor [2] = target: T1, 5-HT2A receptor; assay: Radioligand binding at 5-HT2A ([3H]ketanserin); parameters: expressed in transfected cells
Experimental: (§4) The binding affinities of disclosed compounds at the ketanserin binding site of the 5-HT2A receptor, the LSD binding site of the 5-HT2B receptor, and the mesulergine binding site of the 5-HT2C receptor were determined in radioligand binding experiments.
(§5) Method. The affinity of the test compounds for 5-HT2A, 5-HT2B, and 5-HT2C receptors was determined in radioligand binding experiments with [^3H]ketanserin, [^3H]LSD, and [^3H]mesulergine, respectively, by WuXi AppTec (Hong Kong) Limited, using methods adapted from the literature and under conditions described in Table 7.

[3] = Metabolic stability in human liver microsomes (HLM); assay type: in vitro ADME; details: for stability in HLM (in words): 1 μM, 0.50 mg protein/mL, 1 mM NADPH, 37 °C, 60 min; for half-life at 1 µM / microsomal CLint at 1 µM: human liver microsomes 0.50 mg/mL, NADPH 1 mM, test compound 1 μM, 37° C., pH 7.4, 60 min
Experimental: as §2
HLM Stability. Pooled HLM from adult male and female donors (Corning 452117) were used. Microsomal incubations were carried out in multi-well plates. Liver microsomal incubation medium consisted of PBS (100 mM, pH 7.4), MgCl2 (1 mM), and NADPH (1 mM), with 0.50 mg of liver microsomal protein per mL. Control incubations were performed by replacing the NADPH-cofactor system with PBS. Test compounds (1 μM, final solvent concentration 1.0%) were incubated with microsomes at 37° C. with constant shaking. Six time points over 60 minutes were analyzed, with 60 μL aliquots of the reaction mixture being drawn at each time point. The reaction aliquots were stopped by adding 180 μL of cold (4° C.) acetonitrile containing 200 ng/mL tolbutamide and 200 ng/mL labetalol as internal standards (IS), followed by shaking for 10 minutes, and then protein sedimentation by centrifugation at 4,000 rpm for 20 minutes at 4° C. Supernatant samples (80 μL) were diluted with water (240 μL) and analyzed for parent compound remaining using a fit-for-purpose liquid chromatography-tandem mass spectrometry (LC-MS/MS) method.
Data Analysis. The elimination constant (kel), half-life (t1/2), and intrinsic clearance (CLint) were determined in a plot of […] versus time, using linear regression analysis.

5-HT2A receptor [4] = target: T1, 5-HT2A receptor; assay: PathHunter beta-arrestin recruitment functional agonist assay at 5-HT2A; assay type: cell-based; parameters: expressed in transfected cells; host or cells: PathHunter cells (Eurofins DiscoverX); details: for agonist activity at 5-HT2A in arrestin assay (in words): beta-arrestin recruitment; for Emax: read-out: 5-HT2A Arrestin % Act @ Max Dose
Experimental: Disclosed compounds were tested for agonist activity at the 5-HT2A receptor using a beta-arrestin (arrestin) recruitment functional assay, with the results summarized in Table 10.
Arrestin Functional Assay at 5-HT2A. Recruitment of beta-arrestin was determined using a PathHunter assay at Eurofins DiscoverX (Fremont, CA) according to their standard protocols. PathHunter GPCR beta-arrestin assays take advantage of DiscoverX's proprietary Enzyme Fragment Complementation technology. The GPCR is fused in frame with a small enzyme donor fragment ProLink™ (PK) and co-expressed in cells stably expressing a fusion protein of beta-arrestin and the larger, N-terminal deletion mutant of beta-galactosidase. Activation of the GPCR (5-HT2A receptor in this case) stimulates binding of beta-arrestin to the PK-tagged GPCR and forces complementation of the two enzyme fragments, resulting in the formation of an active beta-galactosidase enzyme. This interaction leads to an increase in enzyme activity that can be measured using chemiluminescent PathHunter Detection Reagents. Briefly, PathHunter cells expressing 5-HT2A receptors were seeded in a volume of 20 μL into 384-well plates and incubated at 37° C. for the appropriate time prior to testing. For agonist activity determination, cells were incubated with 5 μL of 5× sample in assay buffer and incubated at 37° C. for 90-180 min with a vehicle concentration of 1%. Plates were then imaged on a microplate reader and the agonist activity was calculated using the following formula: % Activity=100%×(mean RLU of test sample−mean RLU of vehicle control)/(mean MAX control ligand−mean RLU of vehicle control), where RLU=relative light units.

5-HT2C receptor = target: T2, 5-HT2C receptor (Homo sapiens, UniProt P28335); assay: Radioligand binding at 5-HT2C ([3H]mesulergine)
T2 sequence (P28335 33-458): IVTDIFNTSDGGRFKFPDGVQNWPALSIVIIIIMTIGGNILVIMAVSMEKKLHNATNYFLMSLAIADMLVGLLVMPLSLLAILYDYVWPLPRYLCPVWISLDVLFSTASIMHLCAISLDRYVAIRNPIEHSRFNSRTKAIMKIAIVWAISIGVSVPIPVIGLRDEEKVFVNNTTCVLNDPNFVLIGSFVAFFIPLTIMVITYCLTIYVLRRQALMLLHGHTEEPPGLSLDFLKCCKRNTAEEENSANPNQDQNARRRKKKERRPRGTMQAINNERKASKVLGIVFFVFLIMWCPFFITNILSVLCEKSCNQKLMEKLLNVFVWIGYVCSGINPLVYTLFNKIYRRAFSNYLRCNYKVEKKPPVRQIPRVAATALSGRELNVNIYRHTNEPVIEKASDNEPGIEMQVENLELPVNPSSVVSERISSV
Experimental: as §4, §5

5-HT2B receptor = target: T3, 5-HT2B receptor (Homo sapiens, UniProt P41595); assay: FLIPR Ca2+ flux functional agonist assay at 5-HT2B; assay type: cell-based; details: for Emax: agonist activity, FLIPR Ca2+ flux, HEK293, at max dose, read-out: 5-HT2B % Act @ Max Dose
T3 construct: expressed in transfected cells; host or cells: HEK293
T3 sequence (P41595 whole entry): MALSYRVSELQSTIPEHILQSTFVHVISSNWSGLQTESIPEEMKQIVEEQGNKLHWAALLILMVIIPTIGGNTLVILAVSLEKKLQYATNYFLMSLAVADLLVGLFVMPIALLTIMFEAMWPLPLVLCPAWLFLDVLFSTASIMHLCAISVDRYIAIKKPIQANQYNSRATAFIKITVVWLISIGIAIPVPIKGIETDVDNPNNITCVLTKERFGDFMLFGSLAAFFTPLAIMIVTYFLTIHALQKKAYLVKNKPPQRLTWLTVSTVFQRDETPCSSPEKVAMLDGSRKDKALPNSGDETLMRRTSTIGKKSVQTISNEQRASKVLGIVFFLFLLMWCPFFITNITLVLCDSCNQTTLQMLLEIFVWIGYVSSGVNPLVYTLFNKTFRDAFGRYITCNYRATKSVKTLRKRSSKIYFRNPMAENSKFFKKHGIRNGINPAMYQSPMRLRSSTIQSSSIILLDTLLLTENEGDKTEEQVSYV
Experimental: as §1, §2, §3

SMILES	pEC50 (5-HT2A receptor [1])	agonist activity at 5-HT2A (in words) (5-HT2A receptor [1]; Ca2+ flux)	Emax (5-HT2A receptor [1])	pKi (5-HT2A receptor [2])	binding at 5-HT2A receptors (in words) (5-HT2A receptor [2]; [3H]ketanserin)	stability in HLM (in words) [3]	half-life at 1 µM [3]	microsomal CLint at 1 µM [3]	pEC50 (5-HT2A receptor [4])	agonist activity at 5-HT2A in arrestin assay (in words) (5-HT2A receptor [4])	Emax (5-HT2A receptor [4])	pKi (5-HT2C receptor)	selectivity for 5-HT2A over 5-HT2C (in words) (5-HT2C receptor; Ki at 5-HT2C vs Ki at 5-HT2A)	pEC50 (5-HT2B receptor)	Emax (5-HT2B receptor)	fold more potent at 5-HT2A (5-HT2A receptor [1]; 1R compared to 1S, Ca2+ flux)	selectivity for 5-HT2A (in words) (5-HT2A receptor [2]; 1R, over 5-HT2B and 5-HT2C, compared to 1S)	CLint and half-life in HLM (in words) ([3]; 1R versus 1S)	fold lower affinity at 5-HT2C (5-HT2C receptor; 1R compared to 1S)
CCC(N)Cc1cc(OC)c(CCCCCC(F)(F)F)cc1OC (racemic) [Compound 2a, 1-(2,5-dimethoxy-4-(6,6,6-trifluorohexyl)phenyl)butan-2-amine]	6.81	substantially less potent than 1R and 1S in the 5-HT2A FLIPR assay; also recorded: substantially lower efficacy than 1R or 1S	36.2%	8.27	potent ligands for 5-HT2A	significantly higher stability compared to 1R and 1S	> 145 min	< 9.6 µL/min/mg	7.48	higher efficacy in this assay than in the 5-HT2A FLIPR assay	56.8%	7.21	even higher selectivity than 1R for 5-HT2A over 5-HT2C	< 5.00	4.85%	–	–	–	–
CCCCCCc1cc(OC)c(C[C@H](N)CC)cc1OC [Compound 1R, (R)-1-(4-hexyl-2,5-dimethoxyphenyl)butan-2-amine]	7.64	Efficacy at 5-HT2A was also greater for 1R compared to 1S	76.8%	8.46	–	substantially more stable than 1S	37.5 min	37 µL/min/mg	8.21	substantially more efficacious compared to 1S	82.5%	7.74	–	< 5.00	14.8%	~ 2 fold	greater selectivity for 5-HT2A	lower CLint and longer half-life	~ 7 fold
CCCCCCc1cc(OC)c(C[C@@H](N)CC)cc1OC [Compound 1S, (S)-1-(4-hexyl-2,5-dimethoxyphenyl)butan-2-amine]	7.36	–	59.7%	8.48	–	–	19.7 min	70.2 µL/min/mg	8.11	–	58.5%	8.57	–	< 5.00	16.1%	–	–	–	–
